The record followed here is ChEMBL document CHEMBL2321869, “Ion channels as therapeutic targets: a drug discovery perspective” (J Med Chem, 2013).

One may read the IC50 as the concentration at which inhibition is half-maximal. Read a low IC50 as higher potency. By EC50 is commonly meant the concentration giving half of the maximal effect.

Molecules are shown by their SMILES.

Assay [1] deals with Sodium channel protein type 10 subunit alpha (Homo sapiens, UniProt Q9Y5Y9). The experiment in a line: Inhibition of voltage-gated Na channel 1.8 (unknown origin).
Assay [2] deals with Sodium channel protein type 1 subunit alpha (Rattus norvegicus, UniProt P04774). Briefly: Inhibition of rat voltage-gated Na channel 1.1 in dorsal root ganglion neurons by patch clamp technique. Type of assay: tissue-based. For orientation: The patch-clamp technique gives a direct electrical read-out from membranes.
The target of assay [3] is T1, Sodium channel protein type 3 subunit alpha (Rattus norvegicus, UniProt P08104). The experiment in a line: Inhibition of rat voltage-gated Na channel 1.3 in dorsal root ganglion neurons by patch clamp technique. Type of assay: tissue-based.
T1 sequence (P08104 whole entry): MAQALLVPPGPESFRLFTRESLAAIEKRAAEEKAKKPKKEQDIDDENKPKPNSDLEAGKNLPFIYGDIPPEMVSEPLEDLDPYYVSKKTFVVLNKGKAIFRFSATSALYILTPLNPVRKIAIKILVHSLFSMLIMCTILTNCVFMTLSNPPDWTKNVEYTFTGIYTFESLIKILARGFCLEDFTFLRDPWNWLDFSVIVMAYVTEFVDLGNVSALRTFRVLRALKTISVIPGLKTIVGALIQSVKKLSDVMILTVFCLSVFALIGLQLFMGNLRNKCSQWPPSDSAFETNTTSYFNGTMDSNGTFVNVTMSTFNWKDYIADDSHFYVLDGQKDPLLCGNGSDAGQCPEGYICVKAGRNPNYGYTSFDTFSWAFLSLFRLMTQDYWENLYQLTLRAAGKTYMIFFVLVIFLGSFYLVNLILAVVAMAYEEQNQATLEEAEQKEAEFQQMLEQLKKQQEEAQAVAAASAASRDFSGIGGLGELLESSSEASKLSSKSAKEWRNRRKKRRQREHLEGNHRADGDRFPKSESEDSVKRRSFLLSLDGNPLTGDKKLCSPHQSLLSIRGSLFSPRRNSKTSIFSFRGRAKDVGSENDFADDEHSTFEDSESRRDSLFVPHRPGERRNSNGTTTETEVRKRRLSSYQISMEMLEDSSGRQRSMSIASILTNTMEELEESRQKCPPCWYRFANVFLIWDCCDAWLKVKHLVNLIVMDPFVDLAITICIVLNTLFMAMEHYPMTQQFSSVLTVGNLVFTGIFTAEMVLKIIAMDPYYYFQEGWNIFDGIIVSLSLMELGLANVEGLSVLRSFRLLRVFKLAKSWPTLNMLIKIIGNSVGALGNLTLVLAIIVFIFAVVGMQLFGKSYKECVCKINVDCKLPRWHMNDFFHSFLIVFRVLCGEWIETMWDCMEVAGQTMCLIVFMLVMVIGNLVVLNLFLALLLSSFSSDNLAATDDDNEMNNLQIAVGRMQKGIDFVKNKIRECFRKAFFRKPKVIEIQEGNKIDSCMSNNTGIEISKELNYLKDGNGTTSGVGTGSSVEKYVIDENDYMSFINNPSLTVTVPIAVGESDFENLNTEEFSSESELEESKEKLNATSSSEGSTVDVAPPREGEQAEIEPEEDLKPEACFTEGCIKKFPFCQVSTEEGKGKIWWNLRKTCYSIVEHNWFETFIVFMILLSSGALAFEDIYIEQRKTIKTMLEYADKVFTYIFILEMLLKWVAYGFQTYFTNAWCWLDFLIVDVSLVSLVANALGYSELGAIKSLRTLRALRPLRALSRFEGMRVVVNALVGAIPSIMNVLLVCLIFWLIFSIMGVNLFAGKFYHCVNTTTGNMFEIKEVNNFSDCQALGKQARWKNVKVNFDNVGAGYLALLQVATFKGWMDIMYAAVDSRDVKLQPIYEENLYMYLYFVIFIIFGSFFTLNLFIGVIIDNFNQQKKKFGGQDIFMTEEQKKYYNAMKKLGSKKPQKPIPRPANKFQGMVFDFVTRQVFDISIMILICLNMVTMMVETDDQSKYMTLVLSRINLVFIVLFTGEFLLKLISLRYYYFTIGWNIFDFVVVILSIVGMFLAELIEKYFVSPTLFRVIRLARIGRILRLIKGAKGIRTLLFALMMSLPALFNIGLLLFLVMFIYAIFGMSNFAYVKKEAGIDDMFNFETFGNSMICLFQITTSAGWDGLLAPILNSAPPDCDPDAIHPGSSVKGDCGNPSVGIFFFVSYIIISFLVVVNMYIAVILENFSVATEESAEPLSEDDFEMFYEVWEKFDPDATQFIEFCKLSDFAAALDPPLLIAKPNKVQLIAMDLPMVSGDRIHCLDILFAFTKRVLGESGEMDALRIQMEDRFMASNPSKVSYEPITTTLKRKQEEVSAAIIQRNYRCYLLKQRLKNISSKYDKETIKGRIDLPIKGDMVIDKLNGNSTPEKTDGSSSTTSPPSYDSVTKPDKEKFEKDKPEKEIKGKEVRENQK
The target of assay [4] is Gamma-aminobutyric acid receptor subunit alpha-5/beta-3/gamma-3 (Homo sapiens, UniProt P28472+P31644+Q99928). The experiment in a line: Modulation of human GABAA alpha5beta3gamma3 expressed in xenopus oocytes assessed as potentiation of GABA-evoked chloride currents. Type of assay: cell-based, Oocyte.
Assay [5] has as its target GABA-A receptor; alpha-2/beta-3/gamma-2 (Homo sapiens, UniProt P18507+P28472+P47869). Briefly: Modulation of human GABAA alpha2beta3gamma2 expressed in xenopus oocytes assessed as potentiation of GABA-evoked chloride currents. Type of assay: cell-based, Oocyte.
For assay [6], the target named is GABA-A receptor; alpha-1/beta-2/gamma-2 (Homo sapiens, UniProt P14867+P18507+P47870). Briefly: Modulation of human GABA-A alpha1beta2gamma2 expressed in xenopus oocytes assessed as potentiation of GABA-evoked chloride currents. Type of assay: cell-based, Oocyte.
The target in assay [7] is GABA-A receptor; alpha-3/beta-3/gamma-2 (Homo sapiens, UniProt P18507+P28472+P34903). The experiment in a line: Modulation of human GABAA alpha3beta3gamma2 expressed in xenopus oocytes assessed as potentiation of GABA-evoked chloride currents. Type of assay: cell-based, Oocyte.
The species named for assay [8] is Homo sapiens. The experiment in a line: Selectivity ratio of IC50 for human voltage-gated Na channel 1.5 to IC50 for human voltage-gated Na channel 1.3.
The target of assay [9] is T2, Sodium channel protein type 3 subunit alpha (Homo sapiens, UniProt Q9NY46). Briefly: Inhibition of human voltage-gated Na channel 1.3.
Assay [10] addresses T3, Sodium channel protein type 9 subunit alpha (Homo sapiens, UniProt Q15858). Briefly: Inhibition of human voltage-gated Na channel 1.7 by cell based patch clamp technique.
The target in assay [11] is Sodium channel protein type 5 subunit alpha (Homo sapiens, UniProt Q14524). Briefly: Inhibition of human voltage-gated Na channel 1.5 by cell based patch clamp technique.
Assay [12] has as its target T4, Sodium channel protein type 2 subunit alpha (Homo sapiens, UniProt Q99250). The experiment in a line: Inhibition of human voltage-gated Na channel 1.2 by cell based patch clamp technique.
The target in assay [13] is T3, Sodium channel protein type 9 subunit alpha. Briefly: Binding affinity to human inactivated voltage-gated Na channel 1.7 expressed in HEK293 cells by patch-clamp technique. Type of assay: cell-based.
In assay [14] the target is T1, Sodium channel protein type 3 subunit alpha. The experiment in a line: Binding affinity to rat inactivated voltage-gated Na channel 1.3 expressed in human HEK293 cells by patch-clamp technique. In kind it is cell-based.
Assay [15] addresses Sodium channel protein type 10 subunit alpha (Rattus norvegicus, UniProt Q62968). The experiment in a line: Binding affinity to voltage-gated Na channel 1.8 in Sprague-Dawley rat L4/L5 DRG neurons by patch-clamp technique.
Assay [16] deals with Sodium channel protein type 1 subunit alpha (Homo sapiens, UniProt P35498). The experiment in a line: Inhibition of voltage-gated Na channel 1.1 (unknown origin).
Assay [17] addresses Potassium voltage-gated channel subfamily KQT member 1 (Homo sapiens, UniProt P51787). Briefly: Inhibition of voltage-gated K channel 7.1 (unknown origin).
Assay [18] addresses Potassium voltage-gated channel subfamily A member 5 (Homo sapiens, UniProt P22460). Briefly: Inhibition of voltage-gated K channel 1.5 (unknown origin).
The target in assay [19] is Sodium channel protein type 4 subunit alpha (Homo sapiens, UniProt P35499). The experiment in a line: Inhibition of voltage-gated Na channel 1.4 (unknown origin).
Assay [20] has as its target T4, Sodium channel protein type 2 subunit alpha. The experiment in a line: Inhibition of voltage-gated Na channel 1.2 (unknown origin).
The target in assay [21] is T3, Sodium channel protein type 9 subunit alpha. The experiment in a line: Inhibition of voltage-gated Na channel 1.7 (unknown origin).
Assay [22] deals with Voltage-gated inwardly rectifying potassium channel KCNH2 (Homo sapiens, UniProt Q12809). The experiment in a line: Inhibition of human ERG channel.
Assay [23] has as its target T2, Sodium channel protein type 3 subunit alpha. The experiment in a line: Inhibition of voltage-gated Na channel 1.3 (unknown origin).
The target in assay [24] is Sodium channel protein type 8 subunit alpha (Homo sapiens, UniProt Q9UQD0). Briefly: Inhibition of voltage-gated Na channel 1.6 (unknown origin).
The next assay has as its target Glutamate receptor 1 (Homo sapiens, UniProt P42261). The experiment in a line: Agonist activity at GluA1 (unknown origin).
For assay [25], the species on record is Homo sapiens. The experiment in a line: Selectivity ratio of IC50 for voltage-gated K channel (unknown origin) to human voltage-gated K channel 2.1.
The species named for assay [26] is Homo sapiens. The experiment in a line: Selectivity ratio of IC50 for voltage-gated Na channel (unknown origin) to IC50 for voltage-gated K channel 2.2 (unknown origin).
The species entered for assay [27] is Homo sapiens. The experiment in a line: Selectivity ratio of IC50 for voltage-gated K channel (unknown origin) to voltage-gated K channel 2.2 (unknown origin).
Assay [28] deals with Potassium voltage-gated channel subfamily B member 2 (Homo sapiens, UniProt Q92953). Briefly: Inhibition of voltage-gated K channel 2.2 (unknown origin) by automated patch clamp assay.
The species named for assay [29] is Homo sapiens. The experiment in a line: Selectivity ratio of IC50 for voltage-gated Na channel (unknown origin) to IC50 for human voltage-gated K channel 2.1.

T3 sequence (Q15858 whole entry): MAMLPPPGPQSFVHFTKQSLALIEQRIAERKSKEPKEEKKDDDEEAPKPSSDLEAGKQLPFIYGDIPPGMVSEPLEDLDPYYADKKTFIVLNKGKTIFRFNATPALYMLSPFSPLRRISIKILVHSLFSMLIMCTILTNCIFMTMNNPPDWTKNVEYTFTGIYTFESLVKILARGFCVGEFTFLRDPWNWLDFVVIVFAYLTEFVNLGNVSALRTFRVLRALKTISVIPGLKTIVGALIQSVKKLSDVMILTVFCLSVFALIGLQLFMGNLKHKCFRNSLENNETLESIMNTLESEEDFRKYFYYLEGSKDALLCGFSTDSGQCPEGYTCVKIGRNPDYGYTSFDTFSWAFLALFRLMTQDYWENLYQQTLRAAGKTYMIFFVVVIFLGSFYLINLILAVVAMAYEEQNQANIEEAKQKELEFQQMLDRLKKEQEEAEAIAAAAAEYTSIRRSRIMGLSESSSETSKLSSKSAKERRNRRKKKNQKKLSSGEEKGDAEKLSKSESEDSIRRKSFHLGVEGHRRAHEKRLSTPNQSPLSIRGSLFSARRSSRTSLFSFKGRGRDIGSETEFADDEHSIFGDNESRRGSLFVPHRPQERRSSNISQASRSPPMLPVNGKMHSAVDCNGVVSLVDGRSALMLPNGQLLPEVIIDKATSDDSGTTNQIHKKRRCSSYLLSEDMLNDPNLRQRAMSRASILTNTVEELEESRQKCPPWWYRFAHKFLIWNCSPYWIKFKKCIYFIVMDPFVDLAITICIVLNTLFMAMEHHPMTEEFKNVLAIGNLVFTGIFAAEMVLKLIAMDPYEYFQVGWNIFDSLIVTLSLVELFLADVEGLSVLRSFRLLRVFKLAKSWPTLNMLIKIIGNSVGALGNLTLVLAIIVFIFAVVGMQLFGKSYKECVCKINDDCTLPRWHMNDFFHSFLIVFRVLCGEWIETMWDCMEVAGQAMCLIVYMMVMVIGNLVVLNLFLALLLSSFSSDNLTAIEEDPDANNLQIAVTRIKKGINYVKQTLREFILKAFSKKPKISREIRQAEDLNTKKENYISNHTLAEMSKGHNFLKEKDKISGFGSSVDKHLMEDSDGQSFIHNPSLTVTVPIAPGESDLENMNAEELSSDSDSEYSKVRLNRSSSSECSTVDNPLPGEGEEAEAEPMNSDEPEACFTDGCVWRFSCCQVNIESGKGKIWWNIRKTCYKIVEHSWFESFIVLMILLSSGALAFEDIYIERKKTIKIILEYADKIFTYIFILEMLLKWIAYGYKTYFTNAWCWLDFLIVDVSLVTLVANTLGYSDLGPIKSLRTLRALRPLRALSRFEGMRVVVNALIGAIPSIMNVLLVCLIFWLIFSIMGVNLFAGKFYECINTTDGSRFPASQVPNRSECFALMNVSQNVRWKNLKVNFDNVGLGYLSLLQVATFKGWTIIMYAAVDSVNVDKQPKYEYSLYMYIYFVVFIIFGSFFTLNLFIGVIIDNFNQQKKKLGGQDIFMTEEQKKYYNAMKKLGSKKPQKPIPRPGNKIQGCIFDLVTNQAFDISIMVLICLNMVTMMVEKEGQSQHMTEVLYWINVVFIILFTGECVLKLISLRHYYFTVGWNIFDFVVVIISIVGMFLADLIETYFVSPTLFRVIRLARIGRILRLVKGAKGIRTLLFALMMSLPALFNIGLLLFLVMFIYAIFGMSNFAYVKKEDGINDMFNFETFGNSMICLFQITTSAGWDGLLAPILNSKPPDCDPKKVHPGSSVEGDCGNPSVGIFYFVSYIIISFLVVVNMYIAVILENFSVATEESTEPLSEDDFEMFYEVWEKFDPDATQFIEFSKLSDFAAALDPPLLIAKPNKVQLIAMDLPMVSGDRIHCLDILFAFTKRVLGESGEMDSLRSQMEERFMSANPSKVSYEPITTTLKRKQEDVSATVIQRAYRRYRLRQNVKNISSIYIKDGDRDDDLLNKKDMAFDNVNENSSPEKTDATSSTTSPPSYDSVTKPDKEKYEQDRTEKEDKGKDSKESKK
Chain of Potassium voltage-gated channel subfamily KQT member 1 (P51787 whole entry): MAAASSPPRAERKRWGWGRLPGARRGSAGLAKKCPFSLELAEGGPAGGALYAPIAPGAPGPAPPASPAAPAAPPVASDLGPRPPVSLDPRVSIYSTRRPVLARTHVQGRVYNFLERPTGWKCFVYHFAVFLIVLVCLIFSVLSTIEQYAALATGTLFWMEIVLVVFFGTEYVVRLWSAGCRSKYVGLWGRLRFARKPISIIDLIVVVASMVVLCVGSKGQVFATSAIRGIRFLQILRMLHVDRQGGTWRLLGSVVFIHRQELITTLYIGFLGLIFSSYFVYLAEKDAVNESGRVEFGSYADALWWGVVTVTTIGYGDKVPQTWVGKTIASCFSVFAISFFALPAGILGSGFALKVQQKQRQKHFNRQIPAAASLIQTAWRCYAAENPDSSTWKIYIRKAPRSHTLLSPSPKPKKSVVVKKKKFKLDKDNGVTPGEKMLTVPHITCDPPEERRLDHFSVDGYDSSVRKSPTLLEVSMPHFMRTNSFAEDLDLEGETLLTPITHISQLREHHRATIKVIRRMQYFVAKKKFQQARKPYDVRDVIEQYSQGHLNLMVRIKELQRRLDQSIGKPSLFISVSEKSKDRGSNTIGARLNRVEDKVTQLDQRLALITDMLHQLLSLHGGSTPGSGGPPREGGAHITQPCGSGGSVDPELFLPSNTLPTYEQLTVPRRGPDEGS

In [1], `O=C(NCc1cccnc1N1CCOCC1)c1cncc(-c2ccc(OC(F)(F)F)cc2)n1` had a 50% inhibitory concentration (IC50) of 30 nM.
Regarding `O=C1[C@@H](N2CC[C@H](c3cc(Cl)cc(Cl)c3)C2)CCN1c1ccc(S(=O)(=O)Nc2nccs2)cc1`, the IC50 in assay [2] and in assay [3] was under 2000 nM throughout.
For `CCN(C(C)=O)c1cccc(-c2ccnc3c(C#N)cnn23)c1` [ZALEPLON], the EC50 in assay [4] is over 1000 nM; in assay [5] it was 1630 nM; in assay [6], 290 nM; in assay [7], over 1000 nM.
As for `O=C(NCc1ccc(Cl)c(C(F)(F)F)c1)c1ccc(S(=O)(=O)Nc2ncc(Cl)s2)cc1`, the Ratio IC50 in the assay listed under Homo sapiens [8] was over 1000. Also, half-maximal inhibition in [9] (IC50) was put at 30 nM.
On to `COc1cnc(-c2cccc3c2C[C@H](NC(=O)c2ccc(COCC(F)(F)F)nc2)CO3)cn1`, for which the concentration for half-maximal inhibition (IC50) in assay [10] is 66 nM; in assay [11], 13000 nM; in assay [12], over 33000 nM.
As for `COC[C@@H](NC(C)=O)C(=O)NCc1ccccc1` [LACOSAMIDE], the IC50 in assay [13] amounted to 182 nM; in [14] it was 415 nM; in assay [15] it was 16000 nM.
Consider `NC(=O)C(c1ccccc1)(c1ccc(F)cc1)c1ccc(F)cc1` [SENICAPOC], for which the 50% inhibitory concentration (IC50) in [16], in assay [17], in assay [18], in [19], in [20] and in assay [21] was over 1000 nM in each case. In addition, the 50% inhibitory concentration (IC50) in [22], in [23] and in assay [24] was over 1000 nM each time.
For `N[C@@H](C[C@@H](C/C=C/c1ccc2ccccc2c1)C(=O)O)C(=O)O`, at Glutamate receptor 1, the 50% effective concentration (EC50) is over 300000 nM.
With `CC(C)C(=O)Nc1ccc(N(C)C)c(C(=O)N[C@@H](C)c2ccccc2)c1`, the Ratio IC50 in the assay filed under Homo sapiens [25], in the assay listed under Homo sapiens [26], in the assay listed under Homo sapiens [27] and in the assay filed under Homo sapiens [29] was over 10 each time. The same compound yielded an IC50 in assay [28] of 100 nM.
